The test system of the test is S. aureus strains. The format is cell-based. Conditions: resistant or intermediate strains, in the presence of AP-SA02. How it is done:
Grey boxes indicate lines on graph depicted in FIG. 5B. […] Vancomycin, 16 μg/mL; AP-SA02, 0.1 pg/mL.
FIG. 6A is data showing bacterial growth measured by turbidity (absorbance at 600 nm) in the presence of AP-SA02 and vancomycin in a checkerboard assay. Grey boxes show lines on graph depicted in FIG. 6B. […] Vancomycin, 2 μg/mL.
Standard therapy for subjects with a S. aureus infection includes vancomycin and daptomycin. Since subjects who receive AP-SA02 are likely to be on these therapies, the effect of AP-SA02 on these antibiotics and vice versa was assessed. Using the standard checkerboard assay, the minimum inhibitory concentration of each antimicrobial alone or in combination with each other, was used to calculate whether two antimicrobials are synergistic, antagonistic, or indifferent (Table 3).

Take `CN[C@H](CC(C)C)C(=O)N[C@H]1C(=O)N[C@@H](CC(N)=O)C(=O)N[C@H]2C(=O)N[C@H]3C(=O)N[C@H](C(=O)N[C@H](C(=O)O)c4cc(O)cc(O)c4-c4cc3ccc4O)[C@H](O)c3ccc(c(Cl)c3)Oc3cc2cc(c3O[C@@H]2O[C@H](CO)[C@@H](O)[C@H](O)[C@H]2O[C@H]2C[C@](C)(N)[C@H](O)[C@H](C)O2)Oc2ccc(cc2Cl)[C@H]1O` [vancomycin]: the “breakpoint for vancomycin in the presence of phage” value fell in the range of 0.5 to 2 µg/mL.

The record behind these values is patent US20260041723A1, “BACTERIOPHAGE COMPOSITIONS FOR TREATING STAP[…]” (priority 2020, published 2026).
